Where “and” joins values, the source holds several entries; their conditions need not be identical. Identical values can stand only once. Like-named read-outs stand apart in the source and are kept apart here.
Key:
[1] = system: Mtb H37Rv pMSp12::GFP bioreporter strain; assay: microbe, parasite or virus in culture; format: cell-based, Mycobacterium tuberculosis; conditions: for MIC90: Mycobacterium tuberculosis, H37RV; for ADC MIC increase: may be due to serum binding
[2] = TEAC (Trolox Equivalent Absorbance Capacity) assay; conditions: for TEAC: μM Trolox equivalents per gram, mean ± SD
Protocol: The TEAC assay was done according to the method developed by Pellegrini et al., which consists of determining the activities of the isolated compounds in terms of μM Trolox equivalents per gram dry weight (μM TE/g) of the test samples. Trolox was used as the standard with concentrations ranging from 0–500 μM. The absorbance was recorded by a Multiskan spectrometer plate reader at wavelength 734 nm. The antioxidant epigallocatechin gallate (EGCG) was used as a positive control.

[3] = FRAP (Ferric Ion Reducing Antioxidant Power) assay; conditions: for FRAP: μM ascorbic acid equivalents per gram, mean ± SD
Protocol: The FRAP assay was conducted according to Benzie and Strain’s method, which consists of finding the compounds’ antioxidant potential in terms of μM ascorbic acid equivalents per gram dry weight (μM AAE/g). L-Ascorbic acid was used as a standard in the FRAP assay with concentrations varying between 0 and 1000 μM. The antioxidant potential of the tested samples was read at a wavelength of 593 nm in a Multiskan (Thermo Fisher Scientific, Waltham, MA, USA) spectrum plate reader.

[4] = ORAC (Oxygen Radical Absorbance Capacity) assay; conditions: for ORAC: μM Trolox equivalents per gram, mean ± SD
Protocol: The ORAC assay was conducted according to Prior et al.’s method, which is a modified version of the original ORAC assay developed by Cao and Prior [26]. In this assay, 2,2′-azobis(2-amidinopropane) dihydrochloride (AAPH) underwent thermal decomposition to generate peroxyl radicals, resulting in a reduction in fluorescence from fluorescein. The antioxidant potential of the isolated compounds was measured by their ability to prevent any loss in fluorescence from fluorescein by neutralizing peroxyl radicals and assessing the sample’s fluorescence area under the curve (AUC). The fluoroskan spectrum plate reader was programmed to record fluorescein’s fluorescence every 2 min after the addition of AAPH with the excitation wavelength at 485 nm and the emission wavelength at 530 nm. The Trolox (TE) stock solution was used as standard with concentration varying between 0 and 417 μM. The ORAC values were calculated using a regression equation (y = mx + c) between Trolox concentration (y in μM) and the net area under the fluorescence decay curve (x). ORAC values were expressed as μM Trolox equivalents (TE) per gram of test samples (μM TE/g). The antioxidant epigallocatechin gallate (EGCG) was used as a positive control.

[5] = In vitro cytotoxicity MTT assay; conditions: human
HaCaT cells = assay: In vitro cytotoxicity MTT assay; conditions: HaCaT cells
in vitro = conditions: human
[6] = 168 h, […], 7 days, 90% inhibition, read-out: MIC90, 7H9/ADC/Glu/Tw, 7 Days
[7] = 168 h, […], 7 days, 90% inhibition, read-out: MIC90, 7H9/CAS/ Glu/Tx, 7 Days
[8] = 168 h, supplement, […], day 7, read-out: GFP Assay - 10pt DR: MIC90 [Media: 7H9 ADC GLU Tw, Day:7]
[9] = 168 h, supplement, […], day 7, read-out: GFP Assay - 10pt DR: MIC90 [Media: 7H9 CAS GLU Tx, Day:7]
[10] = 336 h, […], 14 days, 90% inhibition, read-out: MIC90, 7H9/ADC/Glu/Tw, 14 Days
[11] = 336 h, […], 14 days, 90% inhibition, read-out: MIC90, 7H9/CAS/ Glu/Tx, 14 Days
[12] = 336 h, supplement, […], day 14, read-out: GFP Assay - 10pt DR: MIC90 [Media: 7H9 ADC GLU Tw, Day:14]
[13] = 336 h, supplement, […], day 14, read-out: GFP Assay - 10pt DR: MIC90 [Media: 7H9 CAS GLU Tx, Day:14]
[14] = 168 h, […], 7 days, value in brackets, read-out: MIC90, 7H9/CAS/ Glu/Tx, 7 Days
[15] = 336 h, […], 14 days, value in brackets, read-out: MIC90, 7H9/CAS/ Glu/Tx, 14 Days
[16] = span over compounds, medium and day not stated (abstract), read-out: MIC90 against Mycobacterium tuberculosis H37Rv
[17] = 168 h, […], 7 days, value in brackets, read-out: MIC90, 7H9/ADC/Glu/Tw, 7 Days
[18] = 336 h, […], 14 days, value in brackets, read-out: MIC90, 7H9/ADC/Glu/Tw, 14 Days

Structure (SMILES) | MIC90 [1, 6] [µg/mL] | MIC90 [1, 7] [µg/mL] | MIC90 [1, 8] [µg/mL] | MIC90 [1, 9] [µg/mL] | MIC90 [1, 10] [µg/mL] | MIC90 [1, 11] [µg/mL] | MIC90 [1, 12] [µg/mL] | MIC90 [1, 13] [µg/mL] | TEAC [2] | FRAP [3] | ORAC [4] | IC50 at 24 h [5] | MIC90 [1, 14] [µM] | MIC90 [1, 15] [µM] | MIC90 [1, 16] [µM] | antioxidant activity in TEAC assay (in words) [2] | antioxidant activity in FRAP assay (in words) [3] | antioxidant activity in ORAC assay (in words) [4] | further results
CC(C)c1cc2c(c(O)c1O)[C@@]13CCCC(C)(C)[C@@H]1[C@](O)(OC3)C2=O [Compound 5, carnosolon] | > 125 | > 125 | > 125 | > 125 | > 125 | > 125 | > 125 | > 125 | 4876.3 ± 0.49 µM TE/g | 13,772.2 ± 2.76 µM AAE/g | 29,287.4 ± 4.75 µM TE/g | 27.5 µg/mL and 79.8 µM | – | – | – | – | – | – | MIC90 ([1]; in both media, read-out: MIC90 against Mtb H37Rv): > 125 µg/mL; cytotoxic activity against HaCaT cells (in words) (HaCaT cells): good cytotoxic activities
CC(C)C1=C(O)C(=O)C2=C(C1=O)[C@H](O)[C@@H](O)C1C(C)(C)CCC[C@]21C (stereo partly drawn) [Compound 1, 6β,7α-dihydroxyroyleanone] | > 125 | 62.5 | > 125 | 62.5 | > 125 | 60.6 | > 125 | 60.6 | 5080.8 ± 0.04 µM TE/g | 541.5 ± 1.59 µM AAE/g | 23,625.0 ± 1.64 µM TE/g | 60.2 µg/mL and 173 µM | 180 | 174 | 5.61 to 180 | good antioxidant activities | very little activity | good antioxidant activities | –
CO[C@H]1/C=C/O[C@@]2(C)Oc3c(C)c(O)c4c(O)c(c(/C=N/N5CCN(C)CC5)c(O)c4c3C2=O)NC(=O)/C(C)=C\C=C\[C@H](C)[C@H](O)[C@@H](C)[C@@H](O)[C@@H](C)[C@H](OC(C)=O)[C@@H]1C [Rifampicin, reference compound] | 0.001 | 0.015 | 0.001 | 0.013 | 0.002 | 0.035 | 0.0011 | 0.018 | – | – | – | – | 0.02 | 0.04 | – | – | – | – | MIC90 [1, 17]: 0.001 µM; MIC90 [1, 18]: 0.002 µM; GFP Assay - 10pt DR: MIC90 [Media: 7H9 ADC GLU Tw, Day:7] ([1]; supplement, […], day 7): 0.002 µg/mL; GFP Assay - 10pt DR: MIC90 [Media: 7H9 CAS GLU Tx, Day:7] ([1]; supplement, […], day 7): 0.015 µg/mL; GFP Assay - 10pt DR: MIC90 [Media: 7H9 ADC GLU Tw, Day:14] ([1]; supplement, […], day 14): 0.001 µg/mL; GFP Assay - 10pt DR: MIC90 [Media: 7H9 CAS GLU Tx, Day:14] ([1]; supplement, […], day 14): 0.035 µg/mL
O=C(O[C@@H]1Cc2c(O)cc(O)cc2O[C@@H]1c1cc(O)c(O)c(O)c1)c1cc(O)c(O)c(O)c1 [EGCG, epigallocatechin gallate, reference compound] | – | – | – | – | – | – | – | – | 4722.5 ± 2.22 µM TE/g | 10,455.1 ± 0.81 µM AAE/g | 14,970.0 ± 5.53 µM TE/g | – | – | – | – | – | – | – | –
CC/C(=C(\c1ccccc1)c1ccc(OCCN(C)C)cc1)c1ccccc1 [tamoxifen] | – | – | – | – | – | – | – | – | – | – | – | – | – | – | – | – | – | – | IC50 at 24 h (in vitro): 22 µg/mL and 59.3 µM
CC(=O)OC1C2=C(C(=O)C(O)=C(C(C)C)C2=O)C2(C)CCCC(C)(C)C2C1O (stereo not drawn) [Compound 2, 7α-acetoxy-6β-hydroxyroyleanone] | 14.4 | 15.2 | 15 | 15.2 | 14.6 | 15.6 | 33.6 | 15.6 | 3700.8 ± 1.50 µM TE/g | 345.5 ± 0.77 µM AAE/g | 21,404.1 ± 4.35 µM TE/g | 42.7 µg/mL and 109 µM | 39 | 40.1 | 5.61 to 180 | weak antioxidant activities | weak antioxidant activities | good activity | antimycobacterial activity (in words) [1]: moderate activities; MIC90 [1, 17]: 36.8 µM; MIC90 [1, 18]: 37.5 µM
CC(C)C1=C(O)C(=O)C2=C(C1=O)[C@H](O)C[C@H]1C(C)(C)CCC[C@]21C [Compound 3, horminone] | > 125 | 14.3 | > 125 | 14.3 | > 125 | 3.96 | > 125 | 3.96 | Inactive | 296.5 ± 6.72 µM AAE/g | 12,443.3 ± 3.61 µM TE/g | 53.7 µg/mL and 162 µM | 43.2 | 11.9 | 5.61 to 180 | – | – | – | ADC MIC increase ([1]; […]): ADC MIC is increased > 4 fold which may be due to serum binding
CC(C)C1=C(O)C(=O)C2=C(C(=O)C(O)=C3C(C)(C)CCC[C@]23C)C1=O [Compound 4, coleon U quinone] | > 125 | 15.6 | > 125 | 15.6 | > 125 | 1.93 | > 125 | 1.94 | 225.5 ± 1.47 µM TE/g | 2109.6 ± 2.78 µM AAE/g | 21,857.8 ± 5.85 µM TE/g | 33.9 µg/mL and 98.5 µM | 45.4 | 5.61 | 5.61 to 180 | weak antioxidant activities | weak antioxidant activities | good activity | ADC MIC increase ([1]; […]): ADC MIC is increased > 4 fold which may be due to serum binding; cytotoxic activity against HaCaT cells (in words) (HaCaT cells): good cytotoxic activities

— paper PMC7832401, “Antimycobacterial, Cytotoxic, and Antioxidant Activities of Abietane Diterpenoids Isolated from Plectranthus madagascariensis” (Plants, 2021)
